From ChEMBL document CHEMBL1833908, “Hydrazidomycins, cytotoxic alkylhydrazides from Streptomycesatratus” (Bioorg Med Chem Lett, 2011)

Assays:
Assay type in all cases: functional, cell-based
SAOS-2 = assay: Cytotoxicity against human Saos2 cells by propidium iodide staining
TE-671 = assay: Cytotoxicity against human TE671 cells by propidium iodide staining
[1] = Cytotoxicity against human UXF 1138L cells by propidium iodide staining
[2] = Cytotoxicity against human CXF 269L cells by propidium iodide staining
[3] = Cytotoxicity against human BXF 1218L cells by propidium iodide staining
[4] = Cytotoxicity against human BXF 1352L cells by propidium iodide staining
[5] = Cytotoxicity against human DIFI cells by propidium iodide staining
HCT-116 = assay: Cytotoxicity against human HCT116 cells by propidium iodide staining
HT-29 = assay: Cytotoxicity against human HT-29 cells by propidium iodide staining
RKO = assay: Cytotoxicity against human RKO cells by propidium iodide staining
MKN-45 = assay: Cytotoxicity against human MKN45 cells by propidium iodide staining
[6] = Cytotoxicity against human GXF251L cells by propidium iodide staining; conditions: GXF 251L
CAL-27 = assay: Cytotoxicity against human CAL27 cells by propidium iodide staining
[7] = Cytotoxicity against human LIXF 575L cells by propidium iodide staining
[8] = Cytotoxicity against human LXFA 289L cells by propidium iodide staining
[9] = Cytotoxicity against human LXFA 526L cells by propidium iodide staining
[10] = Cytotoxicity against human LXFA 629L cells by propidium iodide staining
[11] = Cytotoxicity against human LXFL 1121L cells by propidium iodide staining
[12] = Cytotoxicity against human LXFL 529L cells by propidium iodide staining
NCI-H460 = assay: Cytotoxicity against human NCI-H460 cells by propidium iodide staining
[13] = Cytotoxicity against human MAXF 401NL cells by propidium iodide staining
MCF7 = assay: Cytotoxicity against human MCF7 cells by propidium iodide staining
MDA-MB-231 = assay: Cytotoxicity against human MDA-MB-231 cells by propidium iodide staining
[14] = Cytotoxicity against human MEXF 1341L cells by propidium iodide staining
[15] = Cytotoxicity against human MEXF 276L cells by propidium iodide staining; conditions: MEXF276L
[16] = Cytotoxicity against human MEXF 462NL cells by propidium iodide staining
[17] = Cytotoxicity against human OVXF 899L cells by propidium iodide staining
[18] = Cytotoxicity against human NIH:OVCAR3 cells by propidium iodide staining; conditions: OVCAR-3
[19] = Cytotoxicity against human PAXF 1657L cells by propidium iodide staining
[20] = Cytotoxicity against human PAXF 546L cells by propidium iodide staining
PANC-1 = assay: Cytotoxicity against human PANC1 cells by propidium iodide staining
CWR22R = assay: Cytotoxicity against human 22Rv1 cells by propidium iodide staining
DU-145 = assay: Cytotoxicity against human DU145 cells by propidium iodide staining
LNCaP = assay: Cytotoxicity against human LNCAP cells by propidium iodide staining
[21] = Cytotoxicity against human PC3M cells by propidium iodide staining; conditions: PC-3M
[22] = Cytotoxicity against human PXF 1118L cells by propidium iodide staining
[23] = Cytotoxicity against human PXF 1752L cells by propidium iodide staining
[24] = Cytotoxicity against human PXF 698L cells by propidium iodide staining
[25] = Cytotoxicity against human RXF 1781L cells by propidium iodide staining
[26] = Cytotoxicity against human RXF 393NL cells by propidium iodide staining
[27] = Cytotoxicity against human RXF 486L cells by propidium iodide staining
T-24 = assay: Cytotoxicity against human T24 cells by propidium iodide staining

CCCCCCCCCCCC/C=C\N(NC(=O)COC)C(=O)CCCCCCCCC [HYDRAZIDOMYCIN A]
IC50 (SAOS-2): 1.82 µM | IC50 (TE-671): 0.898 µM | IC50 [1]: 0.893 µM | IC50 [2]: 0.222 µM | IC50 [3]: 2.43 µM | IC50 [4]: 2.3 µM | IC50 [5]: 0.782 µM | IC50 (HCT-116): 0.758 µM | IC50 (HT-29): 0.464 µM | IC50 (RKO): 0.598 µM | IC50 (MKN-45): 0.676 µM | IC50 [6]: 144 nM | IC50 (CAL-27): 0.716 µM | IC50 [7]: 0.349 µM | IC50 [8]: 1.1 µM | IC50 [9]: 1.65 µM | IC50 [10]: 247 nM | IC50 [11]: 2.31 µM | IC50 [12]: 2.12 µM | IC50 (NCI-H460): 2.31 µM | IC50 [13]: 471 nM | IC50 (MCF7): 0.782 µM | IC50 (MDA-MB-231): 286 nM | IC50 [14]: 0.936 µM | IC50 [15]: 1.59 µM | IC50 [16]: 0.765 µM | IC50 [17]: 1.34 µM | IC50 [18]: 1.1 µM | IC50 [19]: 1.91 µM | IC50 [20]: 0.66 µM | IC50 (PANC-1): 0.933 µM | IC50 (CWR22R): 0.882 µM | IC50 (DU-145): 0.539 µM | IC50 (LNCaP): 0.957 µM | IC50 [21]: 105 nM | IC50 [22]: 2.4 µM | IC50 [23]: 1.19 µM | IC50 [24]: 0.982 µM | IC50 [25]: 0.982 µM | IC50 [26]: 1.11 µM | IC50 [27]: 1.62 µM

CCCCCCC/C=C\CCCCC/C=C\N(NC(=O)COC)C(=O)CCCCCCCCC [HYDRAZIDOMYCIN B]
IC50 (SAOS-2): 18 µM | IC50 (TE-671): 18.2 µM | IC50 [1]: 18.2 µM | IC50 [2]: 5.94 µM | IC50 (T-24): 9.19 µM | IC50 [3]: 19.3 µM | IC50 [4]: 15.1 µM | IC50 [5]: 10.2 µM | IC50 (HCT-116): 19.4 µM | IC50 (HT-29): 6.54 µM | IC50 (RKO): 13.8 µM | IC50 (MKN-45): 11.6 µM | IC50 [6]: 1540 nM | IC50 (CAL-27): 12.7 µM | IC50 [7]: 7.39 µM | IC50 [8]: 12.6 µM | IC50 [9]: 7.07 µM | IC50 [10]: 1410 nM | IC50 [11]: 17.4 µM | IC50 [12]: 17.3 µM | IC50 (NCI-H460): 17.2 µM | IC50 [13]: 876 nM | IC50 (MCF7): 11 µM | IC50 (MDA-MB-231): 5530 nM | IC50 [14]: 14.9 µM | IC50 [15]: 18.3 µM | IC50 [16]: 20.4 µM | IC50 [17]: 19.1 µM | IC50 [18]: 18.5 µM | IC50 [19]: 20.4 µM | IC50 [20]: 10.8 µM | IC50 (PANC-1): 10 µM | IC50 (CWR22R): 15.6 µM | IC50 (DU-145): 7.22 µM | IC50 (LNCaP): 14.1 µM | IC50 [21]: 1730 nM | IC50 [22]: 30 µM | IC50 [23]: 12.7 µM | IC50 [24]: 14.3 µM | IC50 [25]: 10.2 µM | IC50 [26]: 11 µM | IC50 [27]: 21.2 µM
